Results published in PubChem BioAssay (NCI).
Where “and” joins values, the source holds several entries; their conditions need not be identical. Equal entries are not always repeated.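 Growth conditions: 96-well plates. Treatment: test compound, 48 hours, 5 concentrations. Analysis: linear interpolation between bracketing concentrations; unreached endpoints set to highest concentration. GI50 = concentration required for 50% inhibition of growth. Definition used: TGI = concentration required for complete inhibition of growth.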

How the values were obtained:
Assay in all cases: DTP human tumour cell line panel, 48 h
KM12 colon = tested on: KM12 colon
HCT-116 colon = tested on: HCT-116 colon
SN12C renal = tested on: SN12C renal
SK-MEL-2 melanoma = tested on: SK-MEL-2 melanoma
OVCAR-4 ovarian = tested on: OVCAR-4 ovarian
786-0 renal = tested on: 786-0 renal
NCI/ADR-RES ovarian = tested on: NCI/ADR-RES ovarian
UACC-257 melanoma = tested on: UACC-257 melanoma
TK-10 renal = tested on: TK-10 renal
NCI-H522 lung = tested on: NCI-H522 lung

SMILES | GI50 (KM12 colon) | TGI (KM12 colon) | GI50 (HCT-116 colon) | TGI (HCT-116 colon) | GI50 (SN12C renal) | TGI (SN12C renal) | GI50 (SK-MEL-2 melanoma) | TGI (SK-MEL-2 melanoma) | GI50 (OVCAR-4 ovarian) | TGI (OVCAR-4 ovarian) | GI50 (786-0 renal) | TGI (786-0 renal) | GI50 (NCI/ADR-RES ovarian) | TGI (NCI/ADR-RES ovarian) | GI50 (UACC-257 melanoma) | TGI (UACC-257 melanoma) | GI50 (TK-10 renal) | TGI (TK-10 renal) | GI50 (NCI-H522 lung) | TGI (NCI-H522 lung)
O=c1c(-c2ccc3c(c2)OCO3)coc2c(CO)c(O)ccc12 | 3.24 µM | 13.3 µM | 2 µM | 4.94 µM | 1.82 µM | 5.51 µM | 2.25 µM | 5.87 µM | 3.39 µM | 18.1 µM | 1.97 µM | 4.6 µM | 3.72 µM | 21.4 µM | 2.59 µM | 7.46 µM | 2.28 µM | 6.78 µM | 4.55 µM | 20.8 µM
O=C(O)CC1C(=O)OC2C3COC(=O)c4cc(O)c(O)c(O)c4-c4c(cc(O)c(O)c4O)C(=O)OC2C(OC(=O)c2cc(O)c(O)c4c2C1C(O)C(=O)O4)C(OC(=O)c1cc(O)c(O)c(O)c1)O3 (stereo not drawn) |  | 42.6 µM |  | 27.8 µM |  | 36.3 µM |  | > 100 µM |  | > 100 µM |  | 56.5 µM |  | 46.9 µM |  | > 100 µM |  | > 100 µM |  | 46.6 µM
Cc1cn(C2CC(N=[N+]=[N-])C(CO)O2)c(=O)[nH]c1=O (stereo not drawn) | 472 µM | > 1000 µM |  | 422 µM | > 1000 µM | > 1000 µM | > 1000 µM | > 1000 µM | > 1000 µM | > 1000 µM | > 1000 µM | > 1000 µM | 296 µM | > 1000 µM | > 1000 µM | > 1000 µM |  | > 1000 µM | > 1000 µM | > 1000 µM
O=C1c2ccccc2C(=O)c2c(NCCNCCO)ccc(NCCNCCO)c21 | 2.4 µM and 2.47 µM and 3.52 µM | 9.12 µM and 21.1 µM and 20.3 µM | 0.715 µM and 0.908 µM and 0.934 µM | 6.79 µM and 6.81 µM and 11.2 µM | 0.183 µM and 0.358 µM and 0.292 µM | 4.57 µM and 12.5 µM and 9.84 µM | 2.22 µM and 2.7 µM and 2.09 µM | 5.79 µM and 16.7 µM and 3.77 µM | 0.896 µM and 1.13 µM and 0.986 µM | 4.87 µM and 4.02 µM and 4.54 µM | 0.757 µM and 1.69 µM and 1.18 µM | 4.66 µM and 14.3 µM and 12.9 µM | 42.8 µM and 99.2 µM and > 100 µM | > 100 µM | 4.72 µM and 6.86 µM and 6.63 µM | 14.2 µM and 27.9 µM and 24.7 µM | 2.89 µM and 2.55 µM and 1.33 µM | 24.6 µM and 22.5 µM and 8.88 µM | 0.482 µM and 0.452 µM and 0.267 µM | 5.48 µM and 2.22 µM and 1.32 µM
COc1cccc(C(C#N)NC23CC4CC(CC(C4)C2)C3)c1 (stereo not drawn) |  | > 100 µM |  | > 100 µM |  | > 100 µM |  | > 100 µM |  | > 100 µM |  | > 100 µM |  | > 100 µM |  | > 100 µM |  | > 100 µM |  | > 100 µM
O=C(O)c1ccccc1-c1ccccc1C(=O)Nc1ccc2c(c1)Cc1ccccc1-2 |  | > 100 µM |  | 35.9 µM |  | > 100 µM |  | 50.7 µM |  | > 100 µM |  | > 100 µM |  | > 100 µM |  | 78.3 µM |  | > 100 µM |  | 55.2 µM
C=C1C(=O)O[C@H]2[C@H]1CC/C(COC(=O)c1cccc3ccccc13)=C\CC[C@@]1(C)O[C@@H]21 | 2.07 µM | 4.99 µM | 1.23 µM | 2.53 µM | 1.73 µM | 3.67 µM | 1.63 µM | 3.38 µM | 1.7 µM | 3.43 µM | 1.69 µM | 3.22 µM | 2.19 µM | 6.45 µM | 1.46 µM | 2.83 µM | 1.85 µM | 3.42 µM | 1.66 µM | 3.22 µM
Cc1ccc2nc3sc(=O)sc3nc2c1 |  | 28.9 µM |  | 30.9 µM |  | 29 µM |  | 29 µM |  | 26.8 µM |  | 28.8 µM |  | 30.9 µM |  | 32.1 µM |  | 30 µM |  | 35.7 µM
c1cc2ccc3cc2cc1CNCCOCCNCc1ccc2ccc(cc2c1)CNCCOCCNC3 | > 100 µM | > 100 µM | > 100 µM | > 100 µM | > 100 µM | > 100 µM | > 100 µM | > 100 µM | > 100 µM | > 100 µM | > 100 µM | > 100 µM | > 100 µM | > 100 µM | > 100 µM | > 100 µM | > 100 µM | > 100 µM | > 100 µM | > 100 µM
CCCCCCCCCCCCNC(=O)[C@H]1CSC(c2cc(Br)cs2)N1 (stereo partly drawn) | 1.05 µM | 2.37 µM | 0.909 µM | 1.74 µM | 1.11 µM | 2.56 µM | 0.916 µM | 1.77 µM | 0.917 µM | 1.95 µM | 2.51 µM | 8.32 µM | 1.11 µM | 2.47 µM | 1.24 µM | 3 µM | 0.951 µM | 1.82 µM | 1.37 µM | 4.31 µM
C[C@@H](Oc1cc(-c2cnn(C3CC4(CNC4)C3)c2)cnc1N)c1c(Cl)ccc(F)c1Cl | 0.111 µM | 7.42 µM | 2.09 µM | 8.87 µM | 2.59 µM | 13.8 µM | 3.58 µM | 15.1 µM | 9.15 µM | 22.7 µM | 5.6 µM | 19.1 µM | 14.9 µM | 31 µM | 1.79 µM | 4.33 µM | 10.3 µM | 22.5 µM | 10.2 µM | 25.4 µM
O=C(O)CN(CC(=O)O)c1ccccc1 |  | > 100 µM |  | > 100 µM |  | > 100 µM |  | > 100 µM |  | > 100 µM |  | > 100 µM |  | > 100 µM |  | > 100 µM |  | > 100 µM |  | > 100 µM
O=C1c2ccccc2-c2c1c1c(O)cccc1n2CCCc1ccccc1 | 4.54 µM | > 100 µM | 5.91 µM | > 100 µM | 14 µM | 67.9 µM | 18.5 µM | 87.3 µM | 87.7 µM | > 100 µM | 21 µM | 99.3 µM | 4.47 µM | 51.1 µM | 19.7 µM | 50.8 µM | 10.1 µM | 56.7 µM | 3.85 µM | 38.5 µM
O=[N+]([O-])c1ccc(N/N=C/c2ccccc2O)nc1 | 1.19 µM | > 100 µM | 0.371 µM | > 100 µM | 2.17 µM | > 100 µM | 3 µM | > 100 µM | 0.408 µM | > 100 µM | 3.03 µM | > 100 µM | 0.373 µM | > 100 µM | 3.13 µM | 25 µM | 3.43 µM | > 100 µM | 0.289 µM | > 100 µM
S=C(Nc1ccc(Cl)cc1)SC1CCCCC1 |  | 95.7 µM |  | 70.8 µM |  | 51.3 µM |  | 39.9 µM |  | > 100 µM |  | > 100 µM |  | > 100 µM |  | 76.5 µM |  | > 100 µM |  | 44.6 µM
COc1ccc(C2=NNC(c3cc(Cc4ccc(O)c(C5CC(c6ccc(OC)cc6)=NN5)c4)ccc3O)C2)cc1 (stereo not drawn) | 22.6 µM | > 100 µM | 4.11 µM | 15.9 µM | 8.84 µM | > 100 µM | 5.9 µM | 29 µM | 5.36 µM | > 100 µM | 8.39 µM | 93.4 µM | 7.39 µM | > 100 µM | 25.6 µM | > 100 µM | 19.6 µM | > 100 µM | 3.64 µM | 23.4 µM
COc1ccccc1N(C(C)=O)C1=C(Cl)C(=O)c2ccccc2C1=O | 1.06 µM | 5.48 µM | 0.76 µM | 2.18 µM | 2.83 µM | 12.1 µM | 1.89 µM | 4.57 µM | 0.875 µM | 2.14 µM | 3.15 µM | 12 µM | 2.52 µM | 11.5 µM | 2.14 µM | 4.39 µM | 1.87 µM | 3.3 µM | 0.33 µM | 1.42 µM
